Experimental data from PubChem BioAssay (NCI).
Values joined by “and” are separate entries in the source; they are usually repeats but may differ in a detail not shown here. Identical values can stand only once.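 96-well plates; 48 h exposure; 5 concentrations. Endpoints by linear interpolation between flanking doses. Not reached: highest tested concentration assigned. Abbreviation: GI50, concentration required for 50% inhibition of growth. TGI marks complete inhibition of growth.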

Assays:
Assay in all cases: DTP human tumour cell line panel, 48 h
HOP-92 NSCLC = tested on: HOP-92 NSCLC
HS 578T breast = tested on: HS 578T breast
UO-31 renal = tested on: UO-31 renal
K-562 leukemia = tested on: K-562 leukemia
SW-620 colon = tested on: SW-620 colon
NCI-H460 lung = tested on: NCI-H460 lung
UACC-257 melanoma = tested on: UACC-257 melanoma
NCI/ADR-RES ovarian = tested on: NCI/ADR-RES ovarian
CCRF-CEM leukemia = tested on: CCRF-CEM leukemia
UACC-62 melanoma = tested on: UACC-62 melanoma

| Structure (SMILES) | TGI (HOP-92 NSCLC) | TGI (HS 578T breast) | TGI (UO-31 renal) | TGI (K-562 leukemia) | TGI (SW-620 colon) | TGI (NCI-H460 lung) | TGI (UACC-257 melanoma) | TGI (NCI/ADR-RES ovarian) | TGI (CCRF-CEM leukemia) | TGI (UACC-62 melanoma) | GI50 (HOP-92 NSCLC) | GI50 (UO-31 renal) | GI50 (K-562 leukemia) | GI50 (SW-620 colon) | GI50 (NCI-H460 lung) | GI50 (UACC-257 melanoma) | GI50 (CCRF-CEM leukemia) | GI50 (UACC-62 melanoma) |
| --- | --- | --- | --- | --- | --- | --- | --- | --- | --- | --- | --- | --- | --- | --- | --- | --- | --- | --- |
| CC(=O)c1c2c(cc3c1CC1(C3)Cc3ccc4c(c3C1=O)CCC4)CCC2 (configuration not stated) | 83.7 µM | > 100 µM | > 100 µM | > 100 µM | > 100 µM | > 100 µM | 14.9 µM | 17.7 µM | > 100 µM | > 100 µM |  |  |  |  |  |  |  |  |
| O=S(=O)(c1ccccc1)[C@@H]1[C@H]2C=C[C@](CS)(O2)[C@H]1S(=O)(=O)c1ccccc1 | > 100 µM | > 100 µM | > 100 µM | 36.9 µM | 30.6 µM | > 100 µM | > 100 µM | > 100 µM | 8.33 µM | > 100 µM |  |  |  |  |  |  |  |  |
| COc1cc(CCC(=O)O)c2cc3ccccc3cc2c1O | 88.3 µM | > 100 µM | 35.7 µM | 42.4 µM | 51.5 µM | 47.2 µM | 31 µM | 80.7 µM | 13.8 µM | 37.7 µM |  |  |  |  |  |  |  |  |
| S=C1NCCN1C(=S)NC1CCCCC1 | 66.2 µM | 99.2 µM | 81.6 µM | > 100 µM | > 100 µM | 48 µM | 63.3 µM | > 100 µM | > 100 µM | 96.5 µM |  |  |  |  |  |  |  |  |
| Nc1cccc(/C=C/CN2CCN(CCOC(c3ccccc3)c3ccccc3)CC2)c1 | 25.4 µM | 48 µM | 27.4 µM | 16.3 µM | 33.9 µM | 27.7 µM | 31.1 µM | 29.5 µM | 25.7 µM | 31.7 µM |  |  |  |  |  |  |  |  |
| C[C@]12CC[C@H]3[C@@H](CC=C4C[C@@H](O)CC[C@@]43C)[C@@H]1C[C@H](N1CCOCC1)[C@@H]2O | > 100 µM | > 100 µM | > 100 µM | > 100 µM | > 100 µM | > 100 µM | > 100 µM | > 100 µM | > 100 µM | > 100 µM |  |  |  |  |  |  |  |  |
| N#CC12CC=C(c3ccccc3)N=C1NC(c1ccccc1)=CC2 (configuration not stated) | 92.2 µM | > 100 µM | > 100 µM | > 100 µM | > 100 µM | > 100 µM | > 100 µM | > 100 µM | 77.7 µM | > 100 µM |  |  |  |  |  |  |  |  |
| Cc1ccc(S(=O)(=O)Nn2c(C)cc3ccc(S(=O)(=O)Nc4ccccc4[N+](=O)[O-])cc3c2=O)cc1 | > 100 µM | > 100 µM | > 100 µM | > 100 µM | > 100 µM | > 100 µM | > 100 µM | > 100 µM | > 100 µM | > 100 µM |  |  |  |  |  |  |  |  |
| Cc1cc(CN(Cc2ccccc2)Cc2nc3ccccc3[nH]2)c(O)c(CN(Cc2nc3ccccc3[nH]2)Cc2nc3ccccc3[nH]2)c1 | 14.7 µM | > 100 µM | 36.7 µM | > 26.3 µM | > 100 µM | 28 µM | 23.1 µM | 35.9 µM | > 21.8 µM | 18.5 µM |  |  |  |  |  |  |  |  |
| Nc1ncnc2c1ccn2CC=C(CO)CO | > 100 µM | > 100 µM | > 100 µM | > 100 µM | > 100 µM | > 100 µM | > 100 µM | > 100 µM | > 100 µM | > 100 µM |  |  |  |  |  |  |  |  |
| [O-]/N=N\c1on[n+](CCc2ccccc2)c1Cc1c(/N=N/[O-])on[n+]1CCc1ccccc1 | 65.8 µM | 62.2 µM | > 100 µM | 65 µM | > 100 µM | > 100 µM | > 100 µM | > 100 µM | > 100 µM | > 100 µM |  |  |  |  |  |  |  |  |
| CC(C)[Si](Oc1cc2c3c(ccc2c(O)c1[C@@H](C)CO[Si](C)(C)C(C)(C)C)C(C)(C)CCC3)(C(C)C)C(C)C | > 100 µM | > 100 µM | > 100 µM | > 100 µM | > 100 µM | > 100 µM | > 100 µM | > 100 µM | > 100 µM | > 100 µM |  |  |  |  |  |  |  |  |
| COc1cccc2c1C(=O)c1c(O)c3c(c(O)c1C2=O)C[C@@](O)(C(C)=O)C[C@@H]3OC1CC(N(C)C)C(O)C(C)O1 (some centres not stated) |  | 0.0011 µM |  | 1.09 µM and 0.182 µM | 0.622 µM and 1.56 µM |  |  | 1.87 µM |  |  | 0.00454 µM and < 0.0147 µM | 0.0561 µM | 0.00456 µM | 0.00484 µM | 0.00786 µM | 0.0435 µM and < 0.0185 µM | 0.0291 µM | 0.0372 µM and < 0.0115 µM |
| O=CNNC(=O)CSc1nc2ccc(I)cc2c(=O)n1Cc1ccccc1 | 63.3 µM | 87.8 µM | 3.93 µM | > 100 µM | > 100 µM | 50.9 µM | 68.3 µM | > 100 µM | > 100 µM | 47.6 µM |  |  |  |  |  |  |  |  |
| CC(=O)N1N=C(c2ccc3ccccc3c2O)CC1c1ccc(Cl)cc1Cl (configuration not stated) | > 100 µM | > 100 µM | > 100 µM | > 100 µM | > 100 µM | > 100 µM | > 100 µM | > 100 µM | > 100 µM | > 100 µM |  |  |  |  |  |  |  |  |
| c1ccc2c(c1)ccc1nc3ccccn3c12 | > 100 µM | > 100 µM | > 100 µM | > 100 µM | > 100 µM | > 100 µM | > 100 µM | > 100 µM | > 100 µM | > 100 µM |  |  |  |  |  |  |  |  |
